Test results from ChEMBL document CHEMBL1201862, “PubChem BioAssay data set” (2004).
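In this assay, cells in 96-well plates receive the compound at five concentrations for 48 hours. Endpoints are linearly interpolated between the surrounding concentrations. At the GI50, growth is halved.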 Active and inactive are the calls of the source. Rule as the data show it: active = GI50 up to about 1.1 µM and inactive = higher.

Experiments:
Assay in all cases: inhibition of tumour cell growth, NCI panel, 48 h
U-251 = system: U-251
XF498 = system: XF498
NCI-H460 = system: NCI-H460
HL-60 = system: HL-60
SF-295 = system: SF-295
A498 = system: A498
SNB-19 = system: SNB-19
RPMI-8226 = system: RPMI-8226
SF-539 = system: SF-539
UACC-257 = system: UACC-257
CAKI-1 = system: CAKI-1
OVCAR-4 = system: OVCAR-4
MOLT-4 = system: MOLT-4
HOP-62 = system: HOP-62
RXF 393 = system: RXF 393
MDA-MB-231 = system: MDA-MB-231
MCF7 = system: MCF7
UACC-62 = system: UACC-62
SK-OV-3 = system: SK-OV-3
MDA-N = system: MDA-N

Row | SMILES | GI50 (U-251) | GI50 (XF498) | GI50 (NCI-H460) | GI50 (HL-60) | GI50 (SF-295) | GI50 (A498) | GI50 (SNB-19) | GI50 (RPMI-8226) | GI50 (SF-539) | GI50 (UACC-257) | GI50 (CAKI-1) | GI50 (OVCAR-4) | GI50 (MOLT-4) | GI50 (HOP-62) | GI50 (RXF 393) | GI50 (MDA-MB-231) | GI50 (MCF7) | GI50 (UACC-62) | GI50 (SK-OV-3) | GI50 (MDA-N)
1 | CCCCOC(=O)N[C@H]1CCc2cc(OC)c(OC)c(OC)c2-c2ccc(SC)c(=O)cc21 | < 0.01 µM (active) | < 0.01 µM (active) | < 0.01 µM (active) | 0.0123 µM (active) | < 0.01 µM (active) | < 0.01 µM (active) | < 0.0153 µM (active) | < 0.01 µM (active) | < 0.01 µM (active) | < 0.0286 µM (active) | < 0.01 µM (active) | 2.2 µM (inactive) | < 0.01 µM (active) | < 0.01 µM (active) | < 0.031 µM (active) | < 0.01 µM (active) | < 0.01 µM (active) | < 0.01 µM (active) | 0.0303 µM (active) | < 0.01 µM (active)
2 | O=C1C2C3C=C4c5ccccc5N(c5ccccc5)C4(C2C(=O)N1c1ccc(Br)cc1)[C@H]1C(=O)N(c2ccc(Br)cc2)C(=O)[C@@H]31 (stereo partly drawn) | > 100 µM (inactive) | > 100 µM (inactive) | > 100 µM (inactive) | > 100 µM (inactive) | > 100 µM (inactive) | > 100 µM (inactive) | > 100 µM (inactive) | 3.41 µM (inactive) | > 100 µM (inactive) | > 100 µM (inactive) | 18.8 µM (inactive) | > 100 µM (inactive) | 8.89 µM (inactive) | > 100 µM (inactive) | > 100 µM (inactive) | – | – | > 100 µM (inactive) | > 100 µM (inactive) | –
3 | COc1ccccc1NC(=O)C1=C(C)NC(C)=C(C(=O)Nc2ccccc2OC)C1c1ccco1 | 5.86 µM (inactive) | 6.01 µM (inactive) | 3.56 µM (inactive) | 0.638 µM (active) | 4.31 µM (inactive) | 4.3 µM (inactive) | 7.71 µM (inactive) | 4.52 µM (inactive) | 4.13 µM (inactive) | 9.55 µM (inactive) | 4.09 µM (inactive) | 8.57 µM (inactive) | 3.87 µM (inactive) | 6.28 µM (inactive) | 2.51 µM (inactive) | 23.6 µM (inactive) | 3.59 µM (inactive) | 3.12 µM (inactive) | 7.01 µM (inactive) | 2.74 µM (inactive)
4 | Cc1nc(C)c(C(=O)Nc2cccc3c2C(=O)NC3=O)cc1C(=O)Nc1cccc2c1C(=O)NC2=O | > 100 µM (inactive) | > 100 µM (inactive) | > 100 µM (inactive) | > 100 µM (inactive) | > 100 µM (inactive) | > 100 µM (inactive) | > 100 µM (inactive) | > 100 µM (inactive) | > 100 µM (inactive) | > 100 µM (inactive) | > 100 µM (inactive) | > 100 µM (inactive) | > 100 µM (inactive) | > 100 µM (inactive) | > 100 µM (inactive) | – | – | > 100 µM (inactive) | > 100 µM (inactive) | –
5 | COc1cc2c(cc1OC)C(OC)N(C)c1c-2ccc2cc3c(cc12)OCO3 (stereo not drawn) | 0.356 µM (active) | 0.895 µM (active) | 0.486 µM (active) | 2.22 µM (inactive) | 2.82 µM (inactive) | 0.458 µM (active) | 0.665 µM (active) | 1.47 µM (inactive) | 1.75 µM (inactive) | 12.1 µM (inactive) | 1.98 µM (inactive) | 4.93 µM (inactive) | 0.611 µM (active) | 1.4 µM (inactive) | 1.91 µM (inactive) | 1.4 µM (inactive) | 1.24 µM (inactive) | 0.8 µM (active) | 0.916 µM (active) | 13.6 µM (inactive)
6 | COC(=O)[C@@]12OC[C@]34C([C@@H](O)C1O)[C@@]1(C)CC(=O)C(OC(=O)/C=C(/c5ccccc5)C(F)(F)F)=C(C)C1C[C@H]3OC(=O)[C@H](O)[C@H]42 (stereo partly drawn) | 6.68 µM (inactive) | 9.82 µM (inactive) | 2.43 µM (inactive) | 1.16 µM (inactive) | 7.93 µM (inactive) | 0.52 µM (active) | 4.71 µM (inactive) | 2.06 µM (inactive) | 3.79 µM (inactive) | 8.73 µM (inactive) | 20.1 µM (inactive) | 17.7 µM (inactive) | 2.14 µM (inactive) | 12.4 µM (inactive) | 16.9 µM (inactive) | – | – | 2.36 µM (inactive) | 7.89 µM (inactive) | –
7 | S=c1sc2c(S)nc(S)nc2n1-c1ccccc1 | > 100 µM (inactive) | > 100 µM (inactive) | > 100 µM (inactive) | > 100 µM (inactive) | > 100 µM (inactive) | 41 µM (inactive) | > 100 µM (inactive) | > 100 µM (inactive) | > 100 µM (inactive) | > 100 µM (inactive) | > 100 µM (inactive) | > 100 µM (inactive) | > 100 µM (inactive) | > 100 µM (inactive) | > 100 µM (inactive) | – | – | > 100 µM (inactive) | > 100 µM (inactive) | –
